# Values quoted from earlier work, collected in patent US10172913B2, “Orally disintegrating solid pharmaceutical dosage unit containing a partus control substance” (Oxytone Bioscience B.V., priority 2014, dated 2019).
# Bridge positions count the residues as written; N and C are the ends. Square brackets hold non-standard residues; d marks the D form. Peptide text beside a SMILES is read from it. Orn = NCCC[C@H](N)C(=O)O; Mpa = O=C(O)CCS
# Experiments:
# [1] = lyophilized
# [2] = in vivo
time stable at room temperature [1] [weeks],half-life in the blood [2],SMILES
3,–,CCOc1ccc(C[C@H]2NC(=O)CCSSC[C@@H](C(=O)N3CCC[C@H]3C(=O)N[C@@H](CCCN)C(=O)NCC(N)=O)NC(=O)[C@H](CC(N)=O)NC(=O)[C@H]([C@@H](C)O)NC(=O)[C@H]([C@@H](C)CC)NC2=O)cc1 [atosiban] ([Mpa][dY](Et)ITNCP[Orn]G-NH2; disulfide 1-6)
–,about three,"CC[C@H](C)[C@@H]1NC(=O)[C@H](Cc2ccc(O)cc2)NC(=O)[C@@H](N)CSSC[C@@H](C(=O)N2CCC[C@H]2C(=O)N[C@@H](CC(C)C)C(=O)NCC(N)=O)NC(=O)[C@H](CC(N)=O)NC(=O)[C@H](CCC(N)=O)NC1=O [Oxytocin, cysteine-tyrosine-isoleucine-glutamine-asparagine-cysteine-proline-leucine-glycine-amide]"
